Test results from US20230019236A1, “PROTEIN TYROSINE PHOSPHATASE INHIBITORS AND METHODS OF USE THEREOF” (Calico Life Sciences LLC, priority 2019, published 2023).

What follows are molecules tested against T1, His tagged full-length PTP1B protein (Homo sapiens, UniProt P18031) (assay: Mobility Shift Assay (MSA) used to determine potency of PTP1B inhibitors). Details: Table 2.
T1 construct: made in house
T1 sequence (P18031 with tags, fused parts or gaps): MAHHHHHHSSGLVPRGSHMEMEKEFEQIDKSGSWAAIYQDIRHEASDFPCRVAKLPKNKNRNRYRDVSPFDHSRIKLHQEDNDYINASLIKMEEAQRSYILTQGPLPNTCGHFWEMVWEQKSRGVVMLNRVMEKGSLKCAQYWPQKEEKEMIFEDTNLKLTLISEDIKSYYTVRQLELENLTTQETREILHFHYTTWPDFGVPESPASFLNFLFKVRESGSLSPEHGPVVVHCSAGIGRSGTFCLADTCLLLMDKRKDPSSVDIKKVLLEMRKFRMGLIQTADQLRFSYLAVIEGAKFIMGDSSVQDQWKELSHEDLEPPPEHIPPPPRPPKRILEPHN
Assay type: biochemical
Experimental: The enzymatic assay used to determine activity is a mobility shift assay using a LabChip EZ Reader by Caliper Life Sciences. The enzymatic reaction was carried out in assay buffer (50 mM HEPES pH 7.5, 1 mM EGTA, 10 mM EDTA, 0.01% Tween® 20, and 2 mM DTT). […] The enzyme (at 0.5 nM) was incubated with compound for 10 minutes at room temperature. […] The % inhibition was then used to calculate the IC50 values.
With `CNCCCc1ccc2cc(O)c(N3CC(=O)NS3(=O)=O)c(F)c2c1` [Compound 139, 5-{1-fluoro-3-hydroxy-7-[3-(methylamino)propyl]naphthalen-2-yl}-1λ^6,2,5-thiadiazolidine-1,1,3-trione] the IC50 was 10 to 100 nM.
Work on `O=C1CN(c2c(O)cc3ccc(CC4CNC4)cc3c2F)S(=O)(=O)N1` [Compound 267, 5-{7-[(azetidin-3-yl)methyl]-1-fluoro-3-hydroxynaphthalen-2-yl}-1λ^6,2,5-thiadiazolidine-1,1,3-trione] yielded an IC50 of 10 to 100 nM.
Molecule `O=C1CN(c2c(O)cc3ccc(NCC4CC4)cc3c2F)S(=O)(=O)N1` [Compound 202, 5-{7-[(cyclopropylmethyl)amino]-1-fluoro-3-hydroxynaphthalen-2-yl}-1λ^6,2,5-thiadiazolidine-1,1,3-trione] has an IC50 of 10 to 100 nM.
`O=C1CN(c2c(O)cc3ccc(C4=CCNC4)cc3c2F)S(=O)(=O)N1` [Compound 265, 5-[7-(2,5-dihydro-1H-pyrrol-3-yl)-1-fluoro-3-hydroxynaphthalen-2-yl]-1λ^6,2,5-thiadiazolidine-1,1,3-trione] gave an IC50 of 1 to 10 nM.
Molecule `CC(C)CCCc1ccc2cc(O)c(N3CC(=O)NS3(=O)=O)c(F)c2c1` [Compound 219, 5-[1-fluoro-3-hydroxy-7-(4-methylpentyl)naphthalen-2-yl]-1λ^6,2,5-thiadiazolidine-1,1,3-trione] has an IC50 of 10 to 100 nM.
For `O=C1CN(c2c(O)cc3ccc(C4=CCOCC4)cc3c2F)S(=O)(=O)N1` [Compound 264, 5-[7-(3,6-dihydro-2H-pyran-4-yl)-1-fluoro-3-hydroxynaphthalen-2-yl]-1λ^6,2,5-thiadiazolidine-1,1,3-trione], the IC50 was 10 to 100 nM.
Work on `CS(=O)(=O)N1CC[C@@H](Nc2ccc3cc(O)c(N4CC(=O)NS4(=O)=O)c(F)c3c2)C1` [Compound 304, 5-(1-fluoro-3-hydroxy-7-{[(3R)-1-(methanesulfonyl)pyrrolidin-3-yl]amino}naphthalen-2-yl)-1λ^6,2,5-thiadiazolidine-1,1,3-trione] yielded an IC50 of 10 to 100 nM.
With `CS(=O)(=O)N1CCC(Oc2ccc3cc(O)c(N4CC(=O)NS4(=O)=O)c(F)c3c2)CC1` [Compound 284, 5-(1-fluoro-3-hydroxy-7-{[1-(methanesulfonyl)piperidin-4-yl]oxy}naphthalen-2-yl)-1λ^6,2,5-thiadiazolidine-1,1,3-trione] the IC50 was 1 to 10 nM.
`CC(C)CCNc1ccc2c(F)c(O)c(N3CC(=O)NS3(=O)=O)c(F)c2c1` [Compound 148, 5-{1,4-difluoro-3-hydroxy-7-[(3-methylbutyl)amino]naphthalen-2-yl}-1λ^6,2,5-thiadiazolidine-1,1,3-trione] showed an IC50 of over 100 nM.
For `O=C1CN(c2c(O)cc3ccc(OC4COC4)cc3c2F)S(=O)(=O)N1` [Compound 274, 5-{1-fluoro-3-hydroxy-7-[(oxetan-3-yl)oxy]naphthalen-2-yl}-1λ^6,2,5-thiadiazolidine-1,1,3-trione], the IC50 was 1 to 10 nM.
Work on `CCCOc1ccc2cc(O)c(N3CC(=O)NS3(=O)=O)c(F)c2c1` [Compound 278, 5-(1-fluoro-3-hydroxy-7-propoxynaphthalen-2-yl)-1λ^6,2,5-thiadiazolidine-1,1,3-trione] yielded an IC50 of 10 to 100 nM.
Work on `CC(C)Oc1ccc2cc(O)c(N3CC(=O)NS3(=O)=O)c(F)c2c1` [Compound 279, 5-{1-fluoro-3-hydroxy-7-[(propan-2-yl)oxy]naphthalen-2-yl}-1λ^6,2,5-thiadiazolidine-1,1,3-trione] yielded an IC50 of over 100 nM.
`O=C1CN(c2c(O)cc3ccc(C4CN(C(=O)C5CC5)C4)cc3c2F)S(=O)(=O)N1` [Compound 207, 5-{7-[1-(cyclopropanecarbonyl)azetidin-3-yl]-1-fluoro-3-hydroxynaphthalen-2-yl}-1λ^6,2,5-thiadiazolidine-1,1,3-trione] was tested, and the IC50 was 1 to 10 nM.
Work on `O=C1CN(c2c(O)cc3ccc(OCCN4CCCCC4)cc3c2F)S(=O)(=O)N1` [Compound 112, 5-{1-fluoro-3-hydroxy-7-[2-(piperidin-1-yl)ethoxy]naphthalen-2-yl}-1λ^6,2,5-thiadiazolidine-1,1,3-trione] yielded an IC50 of 10 to 100 nM.
`O=C1CN(c2c(O)cc3ccc(CC4CN(S(=O)(=O)C5CC5)C4)cc3c2F)S(=O)(=O)N1` [Compound 256, 5-(7-{[1-(cyclopropanesulfonyl)azetidin-3-yl]methyl}-1-fluoro-3-hydroxynaphthalen-2-yl)-1λ^6,2,5-thiadiazolidine-1,1,3-trione] showed an IC50 of 1 to 10 nM.
With `N#CCCCCOc1ccc2cc(O)c(N3CC(=O)NS3(=O)=O)c(F)c2c1` [Compound 111, 5-{[8-fluoro-6-hydroxy-7-(1,1,4-trioxo-1λ^6,2,5-thiadiazolidin-2-yl)naphthalen-2-yl]oxy}pentanenitrile] the IC50 was 1 to 10 nM.
In the case of `N#C/C=C/c1ccc2cc(O)c(N3CC(=O)NS3(=O)=O)c(F)c2c1` [Compound 208, (2E)-3-[8-fluoro-6-hydroxy-7-(1,1,4-trioxo-1λ^6,2,5-thiadiazolidin-2-yl)naphthalen-2-yl]prop-2-enenitrile], the IC50 is reported as over 100 nM.
In the case of `CC(C)(N)CCOc1ccc2cc(O)c(N3CC(=O)NS3(=O)=O)c(F)c2c1` [Compound 165, 5-[7-(3-amino-3-methylbutoxy)-1-fluoro-3-hydroxynaphthalen-2-yl]-1λ^6,2,5-thiadiazolidine-1,1,3-trione], the IC50 is reported as 1 to 10 nM.
`COCc1ccc2cc(O)c(N3CC(=O)NS3(=O)=O)c(F)c2c1` [Compound 229, 5-[1-fluoro-3-hydroxy-7-(methoxymethyl)naphthalen-2-yl]-1λ^6,2,5-thiadiazolidine-1,1,3-trione] was tested, and the IC50 was 10 to 100 nM.
`COc1ccc(-c2ccc3cc(O)c(N4CC(=O)NS4(=O)=O)c(F)c3c2)s1` [Compound 227, 5-[1-fluoro-3-hydroxy-7-(5-methoxythiophen-2-yl)naphthalen-2-yl]-1λ^6,2,5-thiadiazolidine-1,1,3-trione] gave an IC50 of over 100 nM.
`O=C1CN(c2c(O)cc3ccc(CC4CCN(CC(F)(F)F)CC4)cc3c2F)S(=O)(=O)N1` [Compound 252, 5-(1-fluoro-3-hydroxy-7-{[1-(2,2,2-trifluoroethyl)piperidin-4-yl]methyl}naphthalen-2-yl)-1λ^6,2,5-thiadiazolidine-1,1,3-trione] was tested, and the IC50 was 1 to 10 nM.
With `O=C1CN(c2c(O)cc3ccc(/C=C/C4CC4)cc3c2F)S(=O)(=O)N1` [Compound 239, 5-{7-[(E)-2-cyclopropylethenyl]-1-fluoro-3-hydroxynaphthalen-2-yl}-1λ^6,2,5-thiadiazolidine-1,1,3-trione] the IC50 was 10 to 100 nM.
`O=C(O)CNc1ccc2cc(O)c(N3CC(=O)NS3(=O)=O)c(F)c2c1` [Compound 280, {[8-fluoro-6-hydroxy-7-(1,1,4-trioxo-1λ^6,2,5-thiadiazolidin-2-yl)naphthalen-2-yl]amino}acetic acid] was tested, and the IC50 was over 100 nM.
`N#CCCCOc1ccc2cc(O)c(N3CC(=O)NS3(=O)=O)c(F)c2c1` [Compound 129, 4-{[8-fluoro-6-hydroxy-7-(1,1,4-trioxo-1λ^6,2,5-thiadiazolidin-2-yl)naphthalen-2-yl]oxy}butanenitrile] gave an IC50 of under 1 nM.
Work on `O=C1CN(c2c(O)cc3ccc(O)cc3c2F)S(=O)(=O)N1` [Compound 276, 5-(1-fluoro-3,7-dihydroxynaphthalen-2-yl)-1λ^6,2,5-thiadiazolidine-1,1,3-trione] yielded an IC50 of over 100 nM.
With `Cc1c[nH]c(-c2ccc3cc(O)c(N4CC(=O)NS4(=O)=O)c(F)c3c2)n1` [Compound 225, 5-[1-fluoro-3-hydroxy-7-(4-methyl-1H-imidazol-2-yl)naphthalen-2-yl]-1λ^6,2,5-thiadiazolidine-1,1,3-trione] the IC50 was 10 to 100 nM.
